Holding throughout (assay): growth of human tumour cells (NCI), 48 h
Test [1] concerns RXF 393.
Test [2] relates to SN12C.
Test [3] concerns UO-31.
Test [4] deals with HOP-62.
In test [5] the test system is COLO 205.
For test [6], the system named is HCT-15.
Test [7] relates to CCRF-CEM.
Test [8] relates to HOP-92.
The test system of test [9] is HT-29.
Test [10] concerns SF-295.
The test system of test [11] is IGROV-1.
Test [12] has as its system OVCAR-5.
The subject of test [13] is U-251.
The subject of test [14] is SK-MEL-5.
The subject of test [15] is A498.
Test [16] has as its system NCI-H226.
The subject of test [17] is RPMI-8226.
Test [18] concerns TK-10.
Test [19] deals with NCI-H460.
Test [20] relates to M14.

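Growth conditions: 96-well plates. Treatment: test compound, 48 hours, 5 concentrations. Analysis: linear interpolation between bracketing concentrations; unreached endpoints set to highest concentration. The concentration for 50% growth inhibition is given as GI50.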 Activity calls are given as the source filed them. No stated cut-off is given here; in the data, active = GI50 up to about 1.1 µM and inactive = higher.

As for `Cc1cc(C)c2c(O)cc(-c3cccc4ccccc34)nc2n1`, the GI50 in test [1] was 0.746 µM (active); in [2], 2.78 µM (inactive); in test [3] it was 3.09 µM (inactive); in test [4] it was 10 µM (inactive); in test [5], 0.41 µM (active); in [6] it was 0.468 µM. Moreover, the GI50 in test [7] is 0.719 µM (active); in test [8] it was 0.361 µM (active); in [9], 0.363 µM (active); in test [10], 0.615 µM (active); in test [11] it was 1.49 µM (inactive); in test [12] it was 2.29 µM (inactive). The GI50 in test [13] is 0.426 µM (active); in test [14], 0.381 µM (active); in test [15], 0.474 µM (active); in [16] it was 1.44 µM (inactive); in test [17], 0.671 µM (active); in [18], > 32.4 µM (inactive). For the same compound, the GI50 in test [19] was 0.653 µM (active); in test [20], 0.745 µM (active).

In the case of `C/C(C[n+]1ccccc1)=N\N=C(N)N`, the GI50 in test [1] was > 100 µM (inactive); in test [2], > 100 µM (inactive); in test [3] it was > 100 µM (inactive); in test [4] it was > 100 µM (inactive); in test [5], > 100 µM (inactive); in [6], greater than 100 µM. Further, the GI50 in [7], in test [8], in [9], in [10], in test [11] and in test [12] was > 100 µM (inactive) throughout. Moreover, the GI50 in test [13], in test [14], in test [15], in test [16], in test [17] and in test [18] was > 100 µM (inactive) throughout. Also, the GI50 in test [19] and in [20] was > 100 µM (inactive) in each case.

Take `COc1cc(C(=O)CC2OC(=O)C(Cl)=C2Cl)ccc1Cl` (stereo not given): the GI50 was > 100 µM (inactive) in test [1]; > 100 µM (inactive) in test [2]; > 100 µM (inactive) in test [3]; > 100 µM (inactive) in test [4]; > 100 µM (inactive) in test [5]; greater than 100 µM in [6]. The GI50 was 69 µM (inactive) in [7]; > 100 µM (inactive) in [8]; > 100 µM (inactive) in [9]; > 100 µM (inactive) in test [10]; > 100 µM (inactive) in [11]; > 100 µM (inactive) in [12]. In addition, the GI50 in test [13], in test [14], in [15], in test [16], in [17] and in test [18] was > 100 µM (inactive) in each case. The GI50 in [19] and in [20] was > 100 µM (inactive) in each case.

As for `O=c1oc2c(O)c(O)c(O)c3c(=O)oc4c(O)c(O)cc1c4c23` [FLAVELLAGIC ACID], the GI50 is > 100 µM (inactive) in [1]; 18.6 µM (inactive) in test [2]; 38.4 µM (inactive) in [3]; > 100 µM (inactive) in test [4]; 99.5 µM (inactive) in [5]; greater than 100 µM in [6]. Also, the GI50 is 29.2 µM (inactive) in test [7]; > 100 µM (inactive) in test [8]; 39.5 µM (inactive) in [9]; 23.8 µM (inactive) in test [10]; > 100 µM (inactive) in test [11]; > 100 µM (inactive) in [12]. For the same compound, the GI50 in [13] is 19.3 µM (inactive); in test [14], > 100 µM (inactive); in test [15], > 100 µM (inactive); in test [16], 83 µM (inactive); in test [17] it was > 100 µM (inactive); in [18], > 100 µM (inactive). Besides, the GI50 in [19] and in [20] was > 100 µM (inactive) throughout.

`NC(CP(=O)(O)O)C(=O)O` (stereo not given): the GI50 in [1] is > 100 µM (inactive); in test [2] it was > 100 µM (inactive); in [3] it was > 100 µM (inactive); in test [4] it was > 100 µM (inactive); in test [5], > 100 µM (inactive); in test [6], greater than 100 µM. Moreover, the GI50 in test [7], in test [8], in test [9], in test [10], in test [11] and in [12] was > 100 µM (inactive) each time. The GI50 in test [13], in test [14], in [15], in test [16], in test [17] and in [18] was > 100 µM (inactive) each time. In addition, the GI50 in [19] and in test [20] was > 100 µM (inactive) in each case.

For `COc1oc(C2C/C(=C/C(C)=C/C(C)=C/C(C)=C/c3ccc([N+](=O)[O-])cc3)CO2)c(C)c(=O)c1C` (stereo not given), the GI50 was 17.9 µM (inactive) in test [1]; 2.57 µM (inactive) in [2]; 5.2 µM (inactive) in [3]; 19.9 µM (inactive) in test [4]; 3.55 µM (inactive) in test [5]; 5.64 µM in test [6]. The GI50 was 2.63 µM (inactive) in [7]; 6.95 µM (inactive) in [8]; 3.14 µM (inactive) in test [9]; 2.47 µM (inactive) in test [10]; 13.2 µM (inactive) in [11]; 47.4 µM (inactive) in test [12]. In addition, the GI50 was 6.27 µM (inactive) in [13]; < 0.01 µM (active) in [14]; 6.89 µM (inactive) in test [15]; 7.28 µM (inactive) in test [16]; 0.55 µM (active) in [17]; 10 µM (inactive) in test [18]. The values for the GI50 in test [19] and in test [20] were 1.26 µM (inactive) and 6.03 µM (inactive), respectively.

For the compound `CN(N=O)c1nc2c(C(N)=O)ncn2s1`, the GI50 is > 100 µM (inactive) in [1]; 97.7 µM (inactive) in test [2]; 22.2 µM (inactive) in test [3]; 28.8 µM (inactive) in test [4]; > 100 µM (inactive) in test [5]; greater than 100 µM in [6]. The GI50 in [7] was 45.4 µM (inactive); in test [8] it was 32.7 µM (inactive); in test [9] it was > 100 µM (inactive); in test [10], 68.2 µM (inactive); in test [11], 63.1 µM (inactive); in [12], > 100 µM (inactive). For the same compound, the GI50 is > 100 µM (inactive) in test [13]; > 100 µM (inactive) in [14]; > 100 µM (inactive) in test [15]; > 100 µM (inactive) in test [16]; 45 µM (inactive) in test [17]; 20 µM (inactive) in test [18]. Besides, the GI50 in [19] was 52.1 µM (inactive); in test [20], 15.7 µM (inactive).

The record behind these values is ChEMBL document CHEMBL1201862, “PubChem BioAssay data set” (2004).
